Test results taken from ChEMBL document CHEMBL4725389, “Novel Blocker of Onco SK3 Channels Derived from Scorpion Toxin Tamapin and Active against Migration of Cancer Cells” (ACS Med Chem Lett, 2020).
Positions of bridges follow the written chain, without caps; N, C: chain ends. Residues, ends and D or L forms follow the SMILES beside them.

Tests used:
[1] = molecular target: Small conductance calcium-activated potassium channel protein 3 (Homo sapiens, UniProt Q9UGI6); assay: Inhibition of recombinant human SK3 expressed in HEK293T cells at 10 nM and holding potential at 0 mV and ramp voltage from -100 to 100 mV by whole cell patch clamp method relative to control; assay type: cell-based; conditions: HEK-293T
[2] = molecular target: Small conductance calcium-activated potassium channel protein 2 (Rattus norvegicus) (UniProt P70604); assay: Inhibition of recombinant rat SK2 expressed in HEK293 cells at 10 nM and holding potential at 0 mV and ramp voltage from -100 to 100 mV by whole cell patch clamp method relative to control; assay type: cell-based
Sequence of Small conductance calcium-activated potassium channel protein 2 (Rattus norvegicus) (P70604 whole entry): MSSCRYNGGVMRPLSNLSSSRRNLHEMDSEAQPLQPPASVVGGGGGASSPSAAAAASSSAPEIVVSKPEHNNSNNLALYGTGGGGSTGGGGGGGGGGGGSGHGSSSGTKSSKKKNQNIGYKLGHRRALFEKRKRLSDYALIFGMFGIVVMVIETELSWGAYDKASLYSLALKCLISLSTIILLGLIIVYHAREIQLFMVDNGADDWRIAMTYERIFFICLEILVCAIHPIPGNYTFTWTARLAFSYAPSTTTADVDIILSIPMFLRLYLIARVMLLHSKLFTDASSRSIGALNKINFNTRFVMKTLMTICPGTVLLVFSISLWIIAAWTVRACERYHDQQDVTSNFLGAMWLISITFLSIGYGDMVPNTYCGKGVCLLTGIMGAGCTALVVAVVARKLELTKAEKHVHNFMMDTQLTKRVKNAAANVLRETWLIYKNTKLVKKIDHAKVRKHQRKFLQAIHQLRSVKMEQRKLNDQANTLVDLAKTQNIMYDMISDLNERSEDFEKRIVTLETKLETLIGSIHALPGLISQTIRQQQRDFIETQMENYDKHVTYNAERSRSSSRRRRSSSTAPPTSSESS

Sequence of Small conductance calcium-activated potassium channel protein 3 (Q9UGI6 whole entry): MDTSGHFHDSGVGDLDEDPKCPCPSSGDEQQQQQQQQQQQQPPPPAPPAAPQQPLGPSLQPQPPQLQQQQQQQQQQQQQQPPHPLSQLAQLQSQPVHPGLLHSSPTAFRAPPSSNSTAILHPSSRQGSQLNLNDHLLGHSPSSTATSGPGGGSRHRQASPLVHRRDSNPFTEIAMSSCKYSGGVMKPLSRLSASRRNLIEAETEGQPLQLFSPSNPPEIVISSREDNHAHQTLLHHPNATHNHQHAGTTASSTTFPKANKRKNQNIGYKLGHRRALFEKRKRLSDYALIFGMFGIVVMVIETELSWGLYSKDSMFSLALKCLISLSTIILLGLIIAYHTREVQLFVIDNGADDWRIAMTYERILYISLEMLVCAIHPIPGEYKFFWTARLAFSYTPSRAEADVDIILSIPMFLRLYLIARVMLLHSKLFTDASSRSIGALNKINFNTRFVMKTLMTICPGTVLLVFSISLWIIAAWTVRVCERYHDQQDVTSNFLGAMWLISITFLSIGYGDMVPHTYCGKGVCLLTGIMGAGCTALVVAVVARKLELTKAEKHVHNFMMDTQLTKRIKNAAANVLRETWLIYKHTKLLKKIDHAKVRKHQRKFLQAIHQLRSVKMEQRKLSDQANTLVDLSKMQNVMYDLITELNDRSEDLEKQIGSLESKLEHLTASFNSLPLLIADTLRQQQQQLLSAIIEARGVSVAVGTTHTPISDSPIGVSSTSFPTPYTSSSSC

inhibition [1] [%] | inhibition [2] [%] | SMILES
< 39 | > 85 | CC[C@H](C)[C@@H]1NC(=O)[C@@H]2CSSC[C@H](NC(=O)[C@H](Cc3ccccc3)NC(=O)[C@H](C)N)C(=O)N[C@@H](CC(N)=O)C(=O)N[C@@H](CC(C)C)C(=O)N[C@@H](CCCNC(=N)N)C(=O)N[C@@H](CCCNC(=N)N)C(=O)N[C@H]3CSSC[C@H](NC(=O)[C@H](CCC(=O)O)NC(=O)[C@H](CCC(=O)O)NC(=O)CNC1=O)C(=O)N[C@@H](CCCCN)C(=O)N[C@H](C(=O)N[C@H](C(=O)N1CCC[C@H]1C(=O)N[C@@H](Cc1ccc(O)cc1)C(=O)O)C(C)C)CSSC[C@H](NC(=O)[C@H](CO)NC(=O)[C@H](CC(C)C)NC(=O)[C@H](CCC(=O)O)NC3=O)C(=O)N[C@@H](CCCNC(=N)N)C(=O)N[C@@H](CO)C(=O)N[C@@H](CC(C)C)C(=O)NCC(=O)N[C@@H](CC(C)C)C(=O)N[C@@H](CC(C)C)C(=O)NCC(=O)N[C@@H](CCC(=O)O)C(=O)N2 (H-AFCNLRRCELSCRSLGLLGECIGEECKCVPY-OH; disulfide 3-21, 8-26, 12-28)
< 39 | 40 | CC[C@H](C)[C@@H]1NC(=O)[C@@H]2CSSC[C@H](NC(=O)[C@H](Cc3ccccc3)NC(=O)[C@H](C)N)C(=O)N[C@@H](CC(N)=O)C(=O)N[C@@H](CC(C)C)C(=O)N[C@@H](CCCNC(=N)N)C(=O)N[C@@H](CCCNC(=N)N)C(=O)N[C@H]3CSSC[C@H](NC(=O)[C@H](CCC(=O)O)NC(=O)[C@H](CCC(=O)O)NC(=O)CNC1=O)C(=O)N[C@@H](CCCCN)C(=O)N[C@H](C(=O)N[C@H](C(=O)N1CCC[C@H]1C(=O)N[C@@H](Cc1c[nH]cn1)C(=O)O)C(C)C)CSSC[C@H](NC(=O)[C@H](CO)NC(=O)[C@H](CC(C)C)NC(=O)[C@H](CCC(=O)O)NC3=O)C(=O)N[C@@H](CCCNC(=N)N)C(=O)N[C@@H](CO)C(=O)N[C@@H](CC(C)C)C(=O)NCC(=O)N[C@@H](CC(C)C)C(=O)N[C@@H](CC(C)C)C(=O)NCC(=O)N[C@@H](CCCCN)C(=O)N2 (H-AFCNLRRCELSCRSLGLLGKCIGEECKCVPH-OH; disulfide 3-21, 8-26, 12-28)
40 | < 39 | CC[C@H](C)[C@@H]1NC(=O)[C@@H]2CSSC[C@H](NC(=O)[C@H](Cc3ccccc3)NC(=O)[C@H](C)N)C(=O)N[C@@H](CC(N)=O)C(=O)N[C@@H](CC(C)C)C(=O)N[C@@H](CCCNC(=N)N)C(=O)N[C@@H](CCCNC(=N)N)C(=O)N[C@H]3CSSC[C@H](NC(=O)[C@H](CCCCN)NC(=O)[C@H](CCC(=O)O)NC(=O)CNC1=O)C(=O)N[C@@H](CCCCN)C(=O)N[C@H](C(=O)N[C@H](C(=O)N1CCC[C@H]1C(=O)N[C@@H](Cc1ccc(O)cc1)C(=O)O)C(C)C)CSSC[C@H](NC(=O)[C@H](CO)NC(=O)[C@H](CC(C)C)NC(=O)[C@H](CCC(=O)O)NC3=O)C(=O)N[C@@H](CCCNC(=N)N)C(=O)N[C@@H](CO)C(=O)N[C@@H](CC(C)C)C(=O)NCC(=O)N[C@@H](CC(C)C)C(=O)N[C@@H](CC(C)C)C(=O)NCC(=O)N[C@@H](CCCCN)C(=O)N2 (H-AFCNLRRCELSCRSLGLLGKCIGEKCKCVPY-OH; disulfide 3-21, 8-26, 12-28)
< 39 | 40 | CC[C@H](C)[C@@H]1NC(=O)[C@@H]2CSSC[C@H](NC(=O)[C@H](Cc3ccccc3)NC(=O)[C@H](C)N)C(=O)N[C@@H](CC(N)=O)C(=O)N[C@@H](CC(C)C)C(=O)N[C@@H](CCCNC(=N)N)C(=O)N[C@@H](CCCNC(=N)N)C(=O)N[C@H]3CSSC[C@H](NC(=O)[C@H](CCC(=O)O)NC(=O)[C@H](CCC(=O)O)NC(=O)CNC1=O)C(=O)N[C@@H](CCCCN)C(=O)N[C@H](C(=O)N[C@H](C(=O)N[C@@H](Cc1ccc(O)cc1)C(=O)O)C(C)C)CSSC[C@H](NC(=O)[C@H](CO)NC(=O)[C@H](CC(C)C)NC(=O)[C@H](CCC(=O)O)NC3=O)C(=O)N[C@@H](CCCNC(=N)N)C(=O)N[C@@H](CO)C(=O)N[C@@H](CC(C)C)C(=O)NCC(=O)N[C@@H](CC(C)C)C(=O)N[C@@H](CC(C)C)C(=O)NCC(=O)N[C@@H](CCCCN)C(=O)N2 (H-AFCNLRRCELSCRSLGLLGKCIGEECKCVY-OH; disulfide 3-21, 8-26, 12-28)
40 | < 39 | CC[C@H](C)[C@@H]1NC(=O)[C@@H]2CSSC[C@H](NC(=O)[C@H](Cc3ccccc3)NC(=O)[C@H](C)N)C(=O)N[C@@H](CC(N)=O)C(=O)N[C@@H](CC(C)C)C(=O)N[C@@H](CCCNC(=N)N)C(=O)N[C@@H](CCCNC(=N)N)C(=O)N[C@H]3CSSC[C@H](NC(=O)[C@H](CCC(=O)O)NC(=O)[C@H](CCC(=O)O)NC(=O)CNC1=O)C(=O)N[C@@H](C)C(=O)N[C@H](C(=O)N[C@H](C(=O)N1CCC[C@H]1C(=O)N[C@@H](Cc1ccc(O)cc1)C(=O)O)C(C)C)CSSC[C@H](NC(=O)[C@H](CO)NC(=O)[C@H](CC(C)C)NC(=O)[C@H](CCC(=O)O)NC3=O)C(=O)N[C@@H](CCCNC(=N)N)C(=O)N[C@@H](CO)C(=O)N[C@@H](CC(C)C)C(=O)NCC(=O)N[C@@H](CC(C)C)C(=O)N[C@@H](CC(C)C)C(=O)NCC(=O)N[C@@H](CCCCN)C(=O)N2 (H-AFCNLRRCELSCRSLGLLGKCIGEECACVPY-OH; disulfide 3-21, 8-26, 12-28)
< 39 | 40 | CC[C@H](C)[C@@H]1NC(=O)[C@@H]2CSSC[C@H](NC(=O)[C@H](Cc3ccccc3)NC(=O)[C@H](C)N)C(=O)N[C@@H](CC(N)=O)C(=O)N[C@@H](CC(C)C)C(=O)N[C@@H](CCCNC(=N)N)C(=O)N[C@@H](CCCNC(=N)N)C(=O)N[C@H]3CSSC[C@H](NC(=O)[C@H](CCC(=O)O)NC(=O)[C@H](CCC(=O)O)NC(=O)CNC1=O)C(=O)N[C@@H](CCCCN)C(=O)N[C@H](C(=O)N[C@H](C(=O)N1CCC[C@H]1C(=O)N[C@@H](Cc1ccc(O)cc1)C(=O)N[C@@H](CC(N)=O)C(=O)O)C(C)C)CSSC[C@H](NC(=O)[C@H](CO)NC(=O)[C@H](CC(C)C)NC(=O)[C@H](CCC(=O)O)NC3=O)C(=O)N[C@@H](CCCNC(=N)N)C(=O)N[C@@H](CO)C(=O)N[C@@H](CC(C)C)C(=O)NCC(=O)N[C@@H](CC(C)C)C(=O)N[C@@H](CC(C)C)C(=O)NCC(=O)N[C@@H](CCCCN)C(=O)N2 (H-AFCNLRRCELSCRSLGLLGKCIGEECKCVPYN-OH; disulfide 3-21, 8-26, 12-28)
< 39 | 40 | CC[C@H](C)[C@@H]1NC(=O)[C@@H]2CSSC[C@H](NC(=O)[C@H](Cc3ccccc3)NC(=O)[C@H](C)N)C(=O)N[C@@H](CC(N)=O)C(=O)N[C@@H](CC(C)C)C(=O)N[C@@H](CCCNC(=N)N)C(=O)N[C@@H](CCCNC(=N)N)C(=O)N[C@H]3CSSC[C@H](NC(=O)[C@H](CCC(=O)O)NC(=O)[C@H](CCC(=O)O)NC(=O)CNC1=O)C(=O)N[C@@H](CCCCN)C(=O)N[C@H](C(=O)N[C@H](C(=O)N[C@@H](Cc1ccc(O)cc1)C(=O)N[C@@H](CC(N)=O)C(=O)O)C(C)C)CSSC[C@H](NC(=O)[C@H](CO)NC(=O)[C@H](CC(C)C)NC(=O)[C@H](CCC(=O)O)NC3=O)C(=O)N[C@@H](CCCNC(=N)N)C(=O)N[C@@H](CO)C(=O)N[C@@H](CC(C)C)C(=O)NCC(=O)N[C@@H](CC(C)C)C(=O)N[C@@H](CC(C)C)C(=O)NCC(=O)N[C@@H](CCCCN)C(=O)N2 (H-AFCNLRRCELSCRSLGLLGKCIGEECKCVYN-OH; disulfide 3-21, 8-26, 12-28)
